# Data from patent publication US20100048604A1, “Ligands for Aldoketoreductases” (priority 2004, published 2010).
# Assays:
# [1] = Solubility in DMSO, methanol and acetonitrile; assay type: physicochemical; conditions: methanol, acetonitrile, organic solvent or mixture, read-out: solubility class (asterisk) in DMSO, methanol, and acetonitrile
# [2] = biological target: T1, rat 3α-hydroxysteroid dehydrogenase (Rattus norvegicus, UniProt P23457); test: Enzymatic screening of probes 1-7 against a panel of oxidoreductases; assay type: biochemical; conditions: 12 hour incubation, 30-50 μM substrate, pH 7, 250 μM NAD(P)H
# T1 construct: gift of Professor Trevor Penning (University of Pennsylvania School of Medicine)
# T1 sequence (P23457 1-322): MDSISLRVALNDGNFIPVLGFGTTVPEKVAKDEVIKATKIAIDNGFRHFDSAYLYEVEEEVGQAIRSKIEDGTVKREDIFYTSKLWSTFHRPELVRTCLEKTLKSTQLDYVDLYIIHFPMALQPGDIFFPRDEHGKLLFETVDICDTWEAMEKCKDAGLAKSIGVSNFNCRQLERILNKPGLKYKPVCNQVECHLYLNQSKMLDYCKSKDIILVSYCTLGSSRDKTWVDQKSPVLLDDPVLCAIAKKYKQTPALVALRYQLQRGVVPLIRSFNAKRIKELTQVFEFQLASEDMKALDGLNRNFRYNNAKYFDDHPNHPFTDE
# Protocol: (§1) FIG. 4. Screening of probes 1-7 against a panel of oxidoreductases Percentage fluorescence increase after 12 hour incubation of 30-50 μM substrate, 100 mM phosphate buffer (pH 7), 250 μM NAD(P)H, and 100 nM enzyme. Substrates 1, 2, 3, and 4 monitored at λexc=340 nm, λem=440 nm. Substrates 5, 6, and 7 monitored at λexc=440 nm, λem=510 nm. 3HSD, 3α-hydroxysteroid dehydrogenase (PT, Pseudomonas testosteroni), HLAD, horse liver alcohol dehydrogenase, TBAD, Thermoanaerobium brockii alcohol dehydrogenase, BS 12HSD, Bacillus sp. 12α-hydroxysteroid dehydrogenase, ABAD, amyloid-β binding alcohol dehydrogenase (human), GDH, glycerol dehydrogenase, YADH, yeast alcohol dehydrogenase, LDH, lactate dehydrogenase.
# (§2) Probes 1-7 (see FIG. 3) were subsequently tested against a collection of dehydrogenases in the presence of NAD(P)H; the extent of reduction was assessed by the measurement of fluorescence intensity at the emission maximum of each probe (FIG. 4). This assay included enzymes from two major oxidoreductase superfamilies, the short chain alcohol dehydrogenases (SDR) and the aldo-keto reductases (AKR), ranging from bacterial to mammalian and human enzymes.
# (§3) Horse Liver alcohol dehydrogenase (Lot Number 51K7520), Thermoanaerobium brockii NADP^+ dependent alcohol dehydrogenase (Lot Number 033K4093), Pseudomonas testosteroni 3α-hydroxysteroid dehydrogenase (Lot Number 053K8624), and Bacillus sphaericus 12α-hydroxysteroid dehydrogenase (Lot Number 70K16621) were purchased from Sigma (St. Louis, Mo.). Yeast alcohol dehydrogenase (Lot Number 93122920), glycerol dehydrogenase (Lot Number 92110122), (D)-lactate dehydrogenase (Lot Number 92419236), (L)-lactate dehydrogenase (Lot Number 92801821), NAD^+, NADP^+, NADH, and NADPH were purchased from Roche. Enzyme activity was confirmed by compliance to supplier's quality control assays prior to usage. Rat and human 3α-hydroxysteroid dehydrogenases were provided by Professor Trevor Penning (University of Pennsylvania School of Medicine) and human amyloid-β peptide binding alcohol dehydrogenase was supplied by Professor Shi Du Yan (Columbia University School for Physicians and Surgeons).
# (§4) Enzymatic assays were performed in triplicate on selected fluorogenic substrates according to the following protocol. To each well of a FALCON 96-well black flat bottom plate was added (1) 40 μL of 500 mM potassium phosphate buffer pH 7.0, (2) 113 μL of double deionized water, (3) 25 μL of 2 mM NADH (except for Pseudomonas testosteroni 3α-hydroxysteroid dehydrogenase, rat 3α-hydroxysteroid dehydrogenase, and Thermoanaerobium brockii NADP^+ dependent alcohol dehydrogenase, in which cases 2 mM of NADPH was used), (4) 2 μL of a 3-5 mM solution of substrate in DMSO, and (5) 20 μL of a 40-50 μg/mL solution of enzyme. Reaction volumes were mixed thoroughly after addition of cofactor, substrate, and enzyme and allowed to react 12 hours at 25° C. Scanning of the 96-well plate was performed by the MicroMax 384 connected to a Jobin Yvon Fluorolog through F-3000 fiber optic cables.
# (§5) Initial Screening with Fluorogenic Substrates: Screening of the first fluorogenic substrates for enzymatic activity has been described above. In short, 200 μL enzymatic assay volumes containing 100 mM potassium phosphate buffer (pH 7), 250 μM NAD(P)H cofactor, and 30-50 μM of ketones (1-7) were incubated for 12 hours on a black FALCON 96-well plate. Formation of the alcohol reduction product was determined by reading the fluorescence arising from excitation at the corresponding alcohol at either 340 nm (27-30) or 440 nm (31-33).
# [3] = biological target: T2, Pseudomonas testosteroni 3α-hydroxysteroid dehydrogenase (Comamonas testosteroni, UniProt P80702); test: as above; assay type: biochemical; conditions: 12 hour incubation, 30-50 μM substrate, pH 7, 250 μM NAD(P)H
# T2 construct: purchased Sigma (St. Louis, Mo.) Lot Number 053K8624 (catalogue number not given)
# Protocol: as §1, §2, §3, §4, §5
# HepG2 cell fractions = test: Metabolism of phenyl ketone 5c in HepG2 cell fractions; assay type: in vitro ADME, human; conditions: 10 μM 5c
# Protocol: FIG. 17. Reactivity of HepG2 cell fractions with 5c. Assays were performed in 50 mM Tris-HCl buffer containing 1 mM NADPH, 10 μM 5c and 80 μg protein/mL, incubated for 60 minutes. Legend: (+) without flufenamic acid; (−) with 100 μM flufenamic acid; HepG2=hepatoma cell line.
# Selectivity of Phenyl Ketone Probe 5c in Cellular Lysates: The selectivity of phenyl ketone probe 5c in human hepatoma cells (HepG2), which are known to express all four AKR1C isozymes in the cytoplasm, was tested. […] An issue may be non-selective reduction of probes with microsomes, which are organelles enriched with redox enzymes. Following one hour incubation of probe 5c with both cytosolic and microsomal fractions prepared from HepG2 cells, the resulting mixtures were analyzed fluorimetrically. […] Moreover, reduction by the cytoplasmic extract was suppressed by flufenamic acid, a known inhibitor of the AKR1C isozymes (Penning, T. M.; Talalay, P. Proc Natl Acad Sci USA 1983, 4504-4508).
# HepG2 cells were obtained from and grown in the Penning laboratory (University of Pennsylvania School of Medicine). Cells were maintained at 37° C. and 5% CO2 containing Eagle's minimal essential medium supplemented with 100 U/mL penicillin, 100 μg/mL streptomycin, 2 mM L-glutamine, and 10 % heat-inactivated fetal bovine serum.
# To measure metabolism of 5c in HepG2 cell fractions, the cells were harvested and fractionized as follows. HepG2 cells were grown to confluency on eight 15×100 mm dishes, whereupon 500 μL of ice cold Tris-HCl-sucrose buffer (50 mM Tris-HCl at pH 7.4, 250 mM sucrose, 1 mM EDTA, and 1 mM 2-mercaptoethanol) was added to each dish. Cells were scratched off and taken up directly into an ice cold potter. These cells were then homogenized and sonicated (10 one-second 10 W bursts, four times on ice). […]
# Protein concentrations for whole or fractionized HepG2 cells were determined by standard Bradford assays (Bradford, M. M.; Anal. Biochem. 1976, 72, 248). […] Reactions were initiated with 80 μg of protein per 1 mL assay and monitored fluorimetrically for up to 2 hours. […]
# AKR1C3 = biological target: T3, AKR1C3 (Homo sapiens, UniProt P42330); test: Steady state kinetic parameters of fluorogenic substrates with purified AKR1C isozymes; assay type: biochemical
# T3 construct: gift of Professor Trevor Penning (University of Pennsylvania School of Medicine)
# T3 sequence (P42330 1-323): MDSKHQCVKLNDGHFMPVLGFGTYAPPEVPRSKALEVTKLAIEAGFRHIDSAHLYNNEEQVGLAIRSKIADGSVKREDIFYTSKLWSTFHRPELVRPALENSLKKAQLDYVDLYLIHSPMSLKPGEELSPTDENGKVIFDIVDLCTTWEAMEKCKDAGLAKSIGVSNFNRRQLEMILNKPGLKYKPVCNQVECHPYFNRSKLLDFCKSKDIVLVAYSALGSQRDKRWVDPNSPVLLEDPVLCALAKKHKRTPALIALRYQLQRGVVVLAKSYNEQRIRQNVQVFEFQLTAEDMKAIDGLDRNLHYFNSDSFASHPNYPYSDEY
# Protocol: The initial reaction rates were used to derive standard kinetic parameters (kcat and Km, Materials and Methods).
# Substrate tolerance of AKR1Cs: Isozyme Activity with 5a-5i: Activity of the second generation of fluorogenic substrates with the AKR1C isozymes was determined as follows. […] After mixing the aqueous components thoroughly, 20 μL of acetonitrile was added as a cosolvent and mixed well. […] 4 μL of undiluted AKR1C (provided generously by the Penning lab at concentrations of 2.5 mg/mL) were then added to the cuvette for a total of 10 μg purified enzyme in the 1 mL assay volume. Fluorescence arising from the respective alcohol reduction product was then monitored over the course of 5-10 minutes.
# Binding constant and catalytic rates (Km and kcat) of the second generation of fluorogenic substrates was determined as follows. […] After mixing the aqueous components thoroughly, 20 μL of acetonitrile was added as a cosolvent and mixed well. […] To initiate the reduction, 2 or 4 μL of diluted AKR1C (1:2 to 1:100, depending on the kinetics of a particular isozyme's reduction of a substrate) was then added to the cuvette. Fluorescence arising from the respective alcohol reduction product was then monitored over the course of 3 minutes (Excitation and emission band pass slits both at 4 nm, lamp 700 V, λexc 410 nm, λem 510).
# initial rate=[nst×(Ft−F0)/(Fst)]/t (1)
# where Ft and F0 represent the fluorescence at times t and 0 minutes, nst is the nanomoles of product in a known concentration of product, and Fst is the fluorescence resulting from nst of product. […] Reported enzymatic kinetic parameters are the average of three independent determinations from three different preparations of substrate and enzyme.
# [4] = isozyme 1C3, potassium phosphate buffer pH 6, NADPH, fluorimetric
# T2 sequence (P80702 whole entry): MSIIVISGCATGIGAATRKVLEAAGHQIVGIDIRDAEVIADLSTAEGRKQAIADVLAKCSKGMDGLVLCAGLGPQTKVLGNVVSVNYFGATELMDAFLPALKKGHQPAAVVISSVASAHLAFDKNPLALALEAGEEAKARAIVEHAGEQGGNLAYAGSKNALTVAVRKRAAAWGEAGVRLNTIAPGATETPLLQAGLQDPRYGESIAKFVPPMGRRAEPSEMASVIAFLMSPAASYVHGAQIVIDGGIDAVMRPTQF
smiles,measurement,setting,value
COc1ccc2cc(-c3ccc(C(C)=O)cc3)c(=O)oc2c1 [VB11],solubility,[1],> 1000 µM
"CC(=O)c1ccc(-c2cc3cc4c5c(c3oc2=O)CCCN5CCC4)cc1 [compound 6, 9-(4-Acetyl-phenyl)-2,3,5,6-tetrahydro-1H,4H-11-oxa-3a-aza-benzo[de]anthracen-10-one]",reduction of probe (fluorescence increase),[2],good conversion
same,reduction of probe (fluorescence increase),[3],good conversion
"O=C(O)c1ccccc1Nc1cccc(C(F)(F)F)c1 [flufenamic acid, reference compound]",effect on reduction of 5c by the cytoplasmic extract,"HepG2 cell fractions; 100 μM flufenamic acid, HepG2 cytoplasmic extract",suppressed
CC(=O)c1ccc(-c2cc3cc4c5c(c3oc2=O)CCCN5CCC4)cc1 [VB35],solubility,[1],> 1000 µM
"O=C(c1ccccc1)c1cc(=O)oc2c3c4c(cc12)CCCN4CCC3 [5c, 8-Benzoyl-2,3,5,6-tetrahydro-1H,4H-11-oxa-3a-aza-benzo[de]anthracen-10-one]",Km,"AKR1C3; AKR1C3, value of the text",0.051 µM
same,Kcat,AKR1C3; [4],0.0988 s⁻¹
same,Km,AKR1C3; [4],0.05 µM
same,reduction in cytoplasmic (cytosolic) fraction,"HepG2 cell fractions; HepG2 cytosolic fraction, 1 mM NADPH, 80 μg protein/mL, one hour incubation",enzymatic reduction occurred
same,stability / reduction in microsomal fraction,"HepG2 cell fractions; HepG2 microsomes, 1 mM NADPH, 80 μg protein/mL, one hour incubation",stable in the presence of microsomes
